4 compounds from patent US8575351B2, “Active metabolite of a thrombin receptor antagonist” (Merck Sharp & Dohme Corp., priority 2009, dated 2013) can be followed below.

“Also recorded” adds a separate entry of the source.

The nature of series [1]: Rising single dose study: LC-MS profiling of SCH 530348 metabolites in plasma and urine. The series is classed as in vivo, human. The conditions noted are these: for Amount detected in urine (LC-MS): 0-24 hr urine after single 40-mg SCH 530348, humans; for Matrix in which metabolite was detected: single oral 20 and 40 mg SCH 530348, healthy male volunteers, plasma and urine extracts; for Amount detected in plasma (LC-MS): first 6-hr period after single 20- or 40-mg SCH 530348, humans. An excerpt:
Phase I clinical studies were designed to evaluate the pharmacokinetics of SCH 530348 in healthy subjects after rising single and multiple doses. The studies included a randomized, evaluator-blind, placebo-controlled, rising single dose (“RSD”) study and a rising multiple dose (“RMD”) study of orally administered SCH 530348 in healthy subjects.
In the single-dose study, 50 healthy males were enrolled into 6 sequential cohorts and randomized to receive in ascending dose manner placebo (n=2-3/group) or oral SCH 530348 (0.25, 1, 5, 10, 20 and 40 mg; n=5-6/group). The objective of this study was to qualitatively assess SCH 530348 metabolites in selected plasma and urine samples following administration of a single oral dose (20 mg or 40 mg, Groups 5 and 6, respectively) of SCH 530348 to healthy male human subjects. Plasma samples from subjects receiving 20 mg and 40 mg of SCH 530348 or placebo were profiled using liquid chromatography-mass spectrometry (“LC-MS”). Only urine samples from 40 mg dose group were profiled. Corresponding plasma and urine LC-MS profiles from the drug- and placebo-dosed subjects were compared to distinguish the drug-derived components from the endogenous material. Next, metabolites were further characterized using liquid chromatography-tandem mass spectrometry (“LC-MS/MS”) methods. Pathways involved in metabolism of SCH 530348 in humans were proposed.
The samples were analyzed using LC-MS System B comprised of TSQ Quantum (Thermo Electron Corp., San Jose, Calif.) operating in a positive electrospray ionization mode, HPLC module Alliance 2695 (Waters, Corp., Milford, Mass.), and flow scintillation analyzer 500TR Series (PerkinElmer Life and Analytical Sciences, Inc., Boston, Mass.).
The clinical phase of the study was conducted at Pharma Bio-Research Group B.V. (Zuidlaren, The Netherlands). Selected plasma and urine samples from Group 5 (20 mg dose and placebo) and Group 6 (40 mg dose and placebo) were shipped and received frozen at Schering-Plough Research Institute (“SPRI”). The samples were stored at −20±10° C. until processing and analysis for metabolites.
Plasma samples from subjects dosed with SCH 530348 or with placebo, in the […], were pooled as summarized in the following table.
To determine extraction efficiency, all available pre-dose plasma from subjects dosed with SCH 530348 (40-mg dose group) was also pooled across subjects. A 2.0 mL aliquot of plasma was spiked with 10 μL of a system suitability mixture (“SSM”) [SCH 530348 and ^14C-SCH 530348 (combined concentration 40 ng/μL, 5000 DPM/μL), SCH 540679 (40 ng/μL), and SCH 609528 (40 ng/μL)] and processed by solvent extraction with protein precipitation. After extracting once with three volumes of acetonitrile, the supernatant was concentrated and reconstituted in dimethylsulfoxide (˜50% of final sample volume) followed by the addition of 1/1 mixture of mobile phases A and B. Following centrifugation, a sample aliquot was analyzed by liquid chromatography-mass spectrometry/flow scintillation analysis (LC-MS/FSA).
A similar procedure was used to process all plasma samples from the drug- or placebo-administered subjects (20- and 40-mg dose groups), and an aliquot of each reconstituted extract was injected for LC-MS analysis. Targeted LC-MS/MS analysis to confirm the presence of metabolites and characterize their structures was also performed.
Urine samples collected during the first 24-hr period post 40-mg dose were pooled across all SCH 530348-dosed subjects (n=5) and across placebo subjects (n=3). Five milliliters of urine (20% of available urine) were pooled from each subject.
To determine the extraction efficiency, 10% of available pre-dose urine from subjects to be dosed with SCH 530348 was also pooled across the subjects. An aliquot (ca. 3.15 mL) was spiked with 15 μL of SSM and extracted by solid-phase extraction. The urine sample was loaded onto a conditioned Sep-Pak Vac tC18 (Waters Corp.) cartridge and washed with water. […]

The target of series [2] is T1, thrombin receptor (Homo sapiens, UniProt P25116).
T1 construct: human coronary artery smooth muscle cell assay measuring effects on thrombin receptor agonist peptide; endogenous in cells; host or cells: human coronary artery smooth muscle cells
T1 sequence (P25116 22-425): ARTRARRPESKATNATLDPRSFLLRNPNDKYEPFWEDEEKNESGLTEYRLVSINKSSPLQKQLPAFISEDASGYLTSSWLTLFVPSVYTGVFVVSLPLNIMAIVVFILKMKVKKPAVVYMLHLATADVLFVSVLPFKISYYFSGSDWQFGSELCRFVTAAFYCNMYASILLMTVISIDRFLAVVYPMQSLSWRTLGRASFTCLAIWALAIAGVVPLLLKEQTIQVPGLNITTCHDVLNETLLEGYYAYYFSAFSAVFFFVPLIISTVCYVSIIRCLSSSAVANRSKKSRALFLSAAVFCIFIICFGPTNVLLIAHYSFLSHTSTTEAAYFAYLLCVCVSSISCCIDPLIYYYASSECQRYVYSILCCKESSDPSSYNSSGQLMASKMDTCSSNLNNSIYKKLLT
In words: Calcium transient assay (human coronary artery smooth muscle cells, TK-induced calcium efflux). Type of series: cell-based. The method, then: Upon analysis, it was determined that, unlike the other detected metabolites, the concentration of the M20 metabolite in the blood was sufficient for it to be considered a “major metabolite.” That finding triggered an evaluation of its activity. In order to assess activity, SCH 530348 and the M20 metabolite were subjected to a human coronary artery smooth muscle cell assay measuring effects on thrombin receptor agonist peptide TFLLRNPNDK-NH2 (“TK”) on calcium efflux (“the calcium transient assay”).

A short description of series [3]: Animal study, M20 exposure multiples in monkeys. The series is classed as in vivo. The conditions noted are these: single dose at 0.5 mg/kg. The method, then:
(§1) Exposure multiples exceeded 10 in monkeys after a single dose at 0.5 mg/kg, 25 in mice after a single dose at 75 mg/kg, and 50 in female rabbits on day 7 after multiple daily doses at 20 mg/kg.

The nature of series [4]: Animal study, M20 exposure multiples in mice. Type of series: in vivo. The conditions noted are these: single dose at 75 mg/kg. The method, then: as §1
Series [5] is described as follows: Animal study, M20 formation and exposure multiples in rabbits. Type of series: in vivo. On the procedure: as §1
Series [6] in a line: Blood levels in placebo-controlled safety study of SCH 530348 in non-urgent PCI subjects. Type of series: in vivo, human. An excerpt: In a multi-center, randomized, double-blind, placebo-controlled study to evaluate the safety of SCH 530348 in subjects undergoing non-urgent percutaneous coronary intervention (“PCI”), blood samples were taken on days 15, 31, 60, 75, and 91. A steady state blood level concentration of SCH 530348 was reached by day 31. By day 31, the M20 metabolite was present in the blood at levels of 30-40% of those of the parent (SCH 530348).

On to `C[C@H]1OC(=O)[C@@H]2C[C@@H]3C[C@H](NC(=O)OCC(=O)O)CC[C@H]3[C@H](/C=C/c3ccc(-c4cccc(F)c4)cn3)[C@H]12` [Metabolite M16, [[[[(1R,3aR,4aR,6R,8aR,9S,9aS)-9-[(E)-2-[5-(3-fluorophenyl)-2-pyridinyl]ethenyl]dodecahydro-1-methyl-3-oxonaphtho[2,3-c]furan-6-yl]amino]carbonyl]oxy]acetic acid], for which, in series [1], the “Amount detected in urine (LC-MS)” value is “minor to trace levels” and the “Matrix in which metabolite was detected” value is listed as “Urine”.
As to `C[C@H]1OC(=O)[C@@H]2C[C@@H]3C[C@H](N)CC[C@H]3[C@H](/C=C/c3ccc(-c4cccc(F)c4)cn3)[C@H]12` [Metabolite M19, (3R,3aS,4S,4aR,7R,8aR,9aR)-7-amino-4-[(E)-2-[5-(3-fluorophenyl)-2-pyridinyl]ethenyl]-decahydro-3-methylnaphtho[2,3-c]furan-1(3H)-one], in series [1], the “Amount detected in urine (LC-MS)” value is on record as “minor to trace levels”, the “Amount detected in plasma (LC-MS)” value is “Trace amounts” and the “Matrix in which metabolite was detected” value is “Plasma,; also recorded: Urine”.
On to `C[C@H]1OC(=O)[C@@H]2C[C@@H]3C[C@H](NC(=O)OCCO)CC[C@H]3[C@H](/C=C/c3ccc(-c4cccc(F)c4)cn3)[C@H]12` [Metabolite M20, 2-hydroxyethyl(1R,3aR,4aR,6R,9S,9aS)-9-{(E)-2(5-(3-fluorophenyl)pyridine-2-yl)vinvl}-1-methyl-3-oxododecahydronaphtho[2,3-c]furan-6ylcarbamate], for which, in series [1], the “Amount detected in plasma (LC-MS)” value was “Trace amounts”. In series [1], the “Matrix in which metabolite was detected” value is reported as “Plasma”. In series [2] (agonist peptide TFLLRNPNDK-NH2 (TK)), the IC50 is 3.4 nM. Besides, the Exposure multiples result in series [3] is recorded as “exceeded 10”; in series [4] it was over 25; in series [5] (female rabbits, day 7 after multiple daily doses at 20 mg/kg) it was over 50. For the same compound, in series [5] (rabbits, after both single and multiple doses), the “Formation of metabolite in animals” value was “formed”. For the same compound, the “Blood level as % of that of the parent (SCH 530348)” value in series [6] (by day 31) was 30-40%.
With `CCOC(=O)N[C@@H]1CC[C@@H]2[C@@H](C1)C[C@H]1C(=O)O[C@H](C)[C@H]1[C@H]2/C=C/c1ccc(-c2cccc(F)c2)cn1` [SCH 530348, Ethyl[(1R,3aR,4aR,6R,8aR,9S,9aS)-9-[(E)-2-[5-(3-fluorophenyl)-2-pyridinyl]ethenyl]dodecahydro-1-methyl-3-oxonaphtho[2,3-c]furan-6-yl]carbamate, reference compound], in series [1], the “Amount detected in urine (LC-MS)” value is recorded as “not detected” and the “Amount detected in plasma (LC-MS)” value is reported as “primary circulating component”. The IC50 in series [2] (agonist peptide […]-NH2 (TK)) came to 4.5 nM. Besides, in series [6] (blood samples on days 15, 31, 60, 75, 91), the “Time to steady state blood level concentration” value was at most 31 days.
